In patent US20240262795A1, “PYRAZINE COMPOUNDS AS INHIBITORS OF FLT3” (Biomea Fusion, Inc., priority 2021, published 2024):

target: T1, WT FLT3 (Homo sapiens, UniProt P36888); assay: WT FLT3 Lance Ultra TR-FRET kinase assay; format: biochemical
T1 construct: purchased Invitrogen PR4666C
T1 sequence (P36888 564-993 limits assumed): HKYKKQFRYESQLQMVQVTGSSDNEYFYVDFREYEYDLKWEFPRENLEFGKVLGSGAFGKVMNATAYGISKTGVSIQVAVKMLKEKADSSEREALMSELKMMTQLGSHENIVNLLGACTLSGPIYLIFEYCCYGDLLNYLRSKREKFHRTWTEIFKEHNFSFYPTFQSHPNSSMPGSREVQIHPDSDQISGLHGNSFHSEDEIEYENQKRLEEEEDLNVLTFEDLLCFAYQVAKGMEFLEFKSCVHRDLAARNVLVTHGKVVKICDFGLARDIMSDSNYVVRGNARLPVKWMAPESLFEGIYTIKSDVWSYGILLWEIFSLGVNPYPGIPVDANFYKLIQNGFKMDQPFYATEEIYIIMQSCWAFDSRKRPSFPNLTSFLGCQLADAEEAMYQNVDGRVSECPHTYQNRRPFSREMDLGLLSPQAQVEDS
Outline: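 Lance Ultra TR-FRET with 50 nM ULight-JAK-1 (Tyr1023) peptide, Eu-anti-phosphotyrosine (PT66) detection, in HEPES pH 7.5 buffer at 23° C, 30 min enzyme/compound preincubation. WT: 0.5 nM enzyme, 100 μM ATP, 30 min; ITD: 0.0625 nM, 50 μM ATP, 60 min. IC50 by four-parameter fit of 11-point 3× dilutions.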

Q: How did the IC50 turn out when CCc1nc(C(N)=O)c(Nc2cccc(CCNC(=O)CN(C)C(=O)/C=C/CN3CCC3)c2)nc1N(C)CC [Compound 516A, (E)-3-((3-(2-(2-(4-(azetidin-1-yl)-N-methylbut-2-enamido)acetamido)ethyl)phenyl)amino)-6-ethyl-5-(ethyl(methyl)amino) pyrazine-2-carboxamide] was run?
A: 0.501 to 1 nM

Q: With CCc1nc(C(N)=O)c(Nc2ccnc(CCNC(=O)[C@H](C)N(C)C(=O)/C=C/CN(C)C)c2)nc1C1CC1 [Compound 310, (S,E)-5-cyclopropyl-3-((2-(2-(2-(4-(dimethylamino)-N-methylbut-2-enamido)propanamido)ethyl)pyridin-4-yl)amino)-6-ethylpyrazine-2-carboxamide] as the compound, how does the IC50 read?
A: 0.501 to 1 nM

Q: Cc1nc(C(N)=O)c(Nc2cccc(CCNC(=O)[C@H](C)N(C)C(=O)/C=C/CN(C)C)c2)nc1N(C)C(C)C [Compound 232, (S, E)-3-((3-(2-(2-(4-(dimethylamino)-N-methylbut-2-enamido)propanamido)ethyl)phenyl)amino)-5-(isopropyl (methyl)amino)-6-methylpyrazine-2-carboxamide] was tested. Which IC50 did it give?
A: 0.501 to 1 nM

Q: With CCc1nc(Nc2cccc([C@@H](C)CNC(=O)CN(C)C(=O)/C=C/CN3CCC3)c2)c(C(N)=O)nc1CC [Compound 508, (R, E)-3-((3-(1-(2-(4-(azetidin-1-yl)-N-methylbut-2-enamido)acetamido)propan-2-yl)phenyl)amino)-5,6-diethylpyrazine-2-carboxamide] as the compound, how does the IC50 read?
A: 0.501 to 1 nM

Q: How did the IC50 turn out when CCc1nc(C(N)=O)c(Nc2cccc([C@@H](C)CNC(=O)CN(C)C(=O)/C=C/CN3CCC3)c2)nc1N(C)CC [Compound 518, (R,E)-3-((3-(1-(2-(4-(azetidin-1-yl)-N-methylbut-2-enamido)acetamido)propan-2-yl)phenyl)amino)-6-ethyl-5-(ethyl(methyl)amino)pyrazine-2-carboxamide] was run?
A: 0.201 to 0.5 nM

Q: Which IC50 does the source give for CCc1nc(C(N)=O)c(Nc2cccc([C@@H](C)CNC(=O)CN(C)C(=O)/C=C/CN3CCC3)c2)nc1C1CC1 [Compound 506, (R,E)-3-((3-(1-(2-(4-(azetidin-1-yl)-N-methylbut-2-enamido)acetamido)propan-2-yl)phenyl)amino)-5-cyclopropyl-6-ethylpyrazine-2-carboxamide] here?
A: 0.101 to 0.2 nM

Q: How did the IC50 turn out when CCOc1nc(Nc2cccc(CCNC(=O)CN(C)C(=O)/C=C/CN3CCC3)c2)c(C(N)=O)nc1CC [Compound 602, (E)-3-((3-(2-(2-(4-(azetidin-1-yl)-N-methylbut-2-enamido)acetamido)ethyl)phenyl)amino)-5-ethoxy-6-ethylpyrazine-2-carboxamide] was run?
A: 0.201 to 0.5 nM

Q: For CCc1nc(C(N)=O)c(Nc2ccnc(CCNC(=O)[C@H](C)N(C)C(=O)/C=C/CN(C)C)c2)nc1N(C)C(C)C [Compound 605, (S, E)-3-((2-(2-(2-(4-(dimethylamino)-N-methylbut-2-enamido)propanamido)ethyl)pyridin-4-yl)amino)-6-ethyl-5-(isopropyl (methyl)amino) pyrazine-2-carboxamide], which IC50 is on record?
A: 0.201 to 0.5 nM

Q: Which IC50 does the source give for CCc1nc(C(N)=O)c(Nc2cccc(CCNC(=O)CN(C)C(=O)/C=C/CN3CCC3)c2)nc1OC(C)C [Compound 603, (E)-3-((3-(2-(2-(4-(azetidin-1-yl)-N-methylbut-2-enamido)acetamido)ethyl)phenyl)amino)-6-ethyl-5-isopropoxypyrazine-2-carboxamide] here?
A: 0.201 to 0.5 nM

Q: With CCc1nc(C(N)=O)c(Nc2cccc(CCNC(=O)[C@H](C)N(C)C(=O)/C=C/CN(C)C)c2)nc1N(C)C(C)C [Compound 204, (S,E)-3-((3-(2-(2-(4-(dimethylamino)-N-methylbut-2-enamido)propanamido)ethyl)phenyl)amino)-6-ethyl-5-(isopropyl(methyl)amino)pyrazine-2-carboxamide] as the compound, how does the IC50 read?
A: 0.101 to 0.2 nM

Q: CCc1nc(C(N)=O)c(Nc2cccc(CCNC(=O)[C@H](C)N(C)C(=O)/C=C/CN(C)C)c2)nc1NC(C)C [Compound 205, (S,E)-3-((3-(2-(2-(4-(dimethylamino)-N-methylbut-2-enamido)propanamido)ethyl)phenyl)amino)-6-ethyl-5-(isopropylamino)pyrazine-2-carboxamide] was tested. Which IC50 did it give?
A: 0.101 to 0.2 nM

Q: CCCc1nc(Nc2cccc([C@@H](C)CNC(=O)CN(C)C(=O)/C=C/CN3CCC3)c2)c(C(N)=O)nc1CC [Compound 507, (R,E)-3-((3-(1-(2-(4-(azetidin-1-yl)-N-methylbut-2-enamido)acetamido)propan-2-yl)phenyl)amino)-6-ethyl-5-propylpyrazine-2-carboxamide] was tested. Which IC50 did it give?
A: 0.201 to 0.5 nM

Q: With CCc1nc(C(N)=O)c(Nc2cccc(CCNC(=O)CN(C)C(=O)/C=C/CN(C)C)c2)nc1N(C)CC [Compound 252, (E)-3-((3-(2-(2-(4-(dimethylamino)-N-methylbut-2-enamido)acetamido)ethyl)phenyl)amino)-6-ethyl-5-(ethyl (methyl)amino) pyrazine-2-carboxamide] as the compound, how does the IC50 read?
A: 0.201 to 0.5 nM

Q: CCc1nc(C(N)=O)c(Nc2cc(F)cc(CCNC(=O)CN(C)C(=O)/C=C/CN3CCC3)c2)nc1C1CC1 [Compound 516, (E)-3-((3-(2-(2-(4-(azetidin-1-yl)-N-methylbut-2-enamido)acetamido)ethyl)-5-fluorophenyl)amino)-5-cyclopropyl-6-ethylpyrazine-2-carboxamide] was tested. Which IC50 did it give?
A: 0.201 to 0.5 nM

Q: For Cc1nc(C(N)=O)c(Nc2cccc(CCNC(=O)CN(C)C(=O)/C=C/CN(C)C)c2)nc1N(C)C(C)C [Compound 250, (E)-3-((3-(2-(2-(4-(dimethylamino)-N-methylbut-2-enamido)acetamido)ethyl)phenyl)amino)-5-(isopropyl(methyl)amino)-6-methylpyrazine-2-carboxamide], which IC50 is on record?
A: 0.201 to 0.5 nM

Q: Which IC50 does the source give for CCc1nc(C(N)=O)c(Nc2cccc(CCNC(=O)[C@H](C)N(C)C(=O)/C=C/CNC)c2)nc1N(C)C(C)C [Compound 307, (S,E)-6-ethyl-5-(isopropyl(methyl)amino)-3-((3-(2-(2-(N-methyl-4-(methylamino)but-2-enamido)propanamido)ethyl)phenyl)amino)pyrazine-2-carboxamide] here?
A: 0.201 to 0.5 nM
